Measurements taken from PubChem BioAssay (NCI).
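Dose response: 5 concentrations. Exposure: 48 h. Format: 96-well plates. Endpoint: linear interpolation; highest concentration if not reached. Abbreviation: GI50, concentration required for 50% inhibition of growth. The concentration for full growth arrest is given as TGI.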

Columns and labels:
Assay in all cases: DTP human tumour cell line panel, 48 h
HT29 colon = test system: HT29 colon
U251 CNS = test system: U251 CNS
LOX IMVI melanoma = test system: LOX IMVI melanoma
MCF7 breast = test system: MCF7 breast
SF-539 CNS = test system: SF-539 CNS
OVCAR-3 ovarian = test system: OVCAR-3 ovarian
CAKI-1 renal = test system: CAKI-1 renal
SK-OV-3 ovarian = test system: SK-OV-3 ovarian
HOP-62 NSCLC = test system: HOP-62 NSCLC
SNB-19 CNS = test system: SNB-19 CNS

SMILES	GI50 (HT29 colon) [µM]	TGI (HT29 colon) [µM]	GI50 (U251 CNS) [µM]	TGI (U251 CNS) [µM]	GI50 (LOX IMVI melanoma) [µM]	TGI (LOX IMVI melanoma) [µM]	GI50 (MCF7 breast) [µM]	TGI (MCF7 breast) [µM]	GI50 (SF-539 CNS) [µM]	TGI (SF-539 CNS) [µM]	GI50 (OVCAR-3 ovarian) [µM]	TGI (OVCAR-3 ovarian) [µM]	GI50 (CAKI-1 renal) [µM]	TGI (CAKI-1 renal) [µM]	GI50 (SK-OV-3 ovarian) [µM]	TGI (SK-OV-3 ovarian) [µM]	GI50 (HOP-62 NSCLC) [µM]	TGI (HOP-62 NSCLC) [µM]	GI50 (SNB-19 CNS) [µM]	TGI (SNB-19 CNS) [µM]
Cn1cnc([N+](=O)[O-])c1Sc1ncn[nH]1	> 100	> 100	> 100	> 100	> 100	> 100	> 100	> 100	> 100	> 100	47.3	> 100	30.7	> 100	> 100	> 100	> 100	> 100	> 100	> 100
CC(Br)C(=O)Nc1ccc(C(=O)O)c(O)c1 (stereo unspecified)		> 100		62.8		> 100		> 100		> 100		73.7		> 100		> 100		> 100		> 100
CCn1c2ccccc2c2cc(C(O)c3cccc4ncccc34)ccc21 (stereo unspecified)	0.0357	1.66	0.0411	3.56	0.0631	13.4	0.0331	20.2	0.0346	0.224	0.0422	39.9	0.0425	> 100	0.0545	> 100	0.0507	> 73.3	0.0437	34.7
COc1ccc(C2=CC(c3ccc(OC)c(OC)c3)c3c(c4ccccc4oc3=O)O2)cc1OC (stereo unspecified)	0.822	31	3.19	> 100	4.22	> 100	0.424	> 100	1.02	4.43	0.313		1.67	> 100	2.68	> 100	2.2	> 100	1.99	> 77.3
CN(/N=N/c1nc(OCc2ccccc2)c2[nH]cnc2n1)C(=O)Oc1ccc([N+](=O)[O-])cc1			7.51	15.3	1.14	10.8	12.4	> 50	9.88	28.8	9.49	24.4	10.9	35.4	10.4	28.6	28.8	> 50	9.6	27.9
CCOC(=O)c1c(C)c(C)n2c1NC(=O)C2		> 100		97.7		> 100		84		> 100		> 100		> 100		> 100		> 100		> 100
C=CS(=O)(=O)CCN1CC1		> 10		> 10		> 10		> 10		> 10		> 10		> 10		> 10		> 10		
O=S(=O)(NCCNc1nccc(-c2c(-c3ccc(F)cc3)nc3sccn23)n1)c1ccccc1	2.31	> 100	6.45	26.9	3.41	93.1	0.722	> 100	19	> 100	11.3	76	3.24	> 100	10.8	> 100	26.4	> 100	9.88	> 100
C=CCCCc1ccc(C(O)CCCCCCCCCCCC)o1 (stereo unspecified)	17.1	35.4	15.5	29.1	16.9	31.1	17.6	48.3	22.1	40.6	19	38.8	17.4	33.2	16.4	37.2	16	30.2	17.7	32.8
Cc1c(Sc2ccccc2)[n+](=O)c2cc(Cl)c(Cl)cc2n1[O-]	79.9	> 100	> 100	> 100	18.4	36.7	38.3	> 100	89.9	> 100	23.3	60.4	42	> 100	> 100	> 100	> 100	> 100	> 100	> 100
COc1cc(/C=C/C(=O)c2cccnc2Nc2ccc(F)cc2)cc(OC)c1OC	2.75	6.69	2.78	11.5	1.69	3.59	2.44	13.6	2.85	7.29	2.63	6.61	3.68	39.5	3.1	8.67	2.9	7.82	3.73	33.2
Cc1ccc(-c2nc(N3CCCNCC3)c3oc(-c4ccc(C)cc4)nc3n2)cc1	1.49	2.85	1.76	3.18	1.86	3.46	1.85	3.88	1.76	3.29	1.73	3.1	1.56	3.02	17.8	31.6	8.78	24.3	1.77	3.25
C/C=C(\C)C(=O)N[C@H]1C(O)C[C@]2(C)C3CC[C@@]4(C)C(CC[C@@H]4C(C)N(C)C)C3CCC2C1O (stereo partly specified)	1.4	5.18	4.35	27.6	1.81	4.7	2.89	17.4	1.61	3.46	4.68	19.5	9.42	38.8	16.1	42.4	5.97	11.8	18.8	43.8
CCN(CC)CCSCCCNc1c2ccc(Cl)cc2nc2ccc(OC)cc12	0.423	1.94	1.7	3.32	0.337	1.34	0.791	3.26	1.4	2.97	1.3	4.18	1.23	3.45	1.56	3.92	0.558	2.21	1.25	4.88
